Source: patent EP0355039A2, “Methods and means for controlling the stability of proteins” (priority 1988, dated 1990)

Tests used:
Format in all cases: biochemical
[1] = target: T1, Actinoplanes missouriensis (DSM 43046) D-glucose isomerase EcoAmi(DSM) GI mutant K253R (Lys-253 to Arg) (Actinoplanes missouriensis, UniProt P12851, K253R)
T1 construct: made in house; host or cells: E. coli K514
Description: (§1) The enzymatic activity of glucose isomerase was assayed as described below (1 unit of enzymatic activity produces 1.0 micromole of product -D-xylulose or D-fructose- per minute; therefore, specific activity -spa- is expressed as units per mg of GI enzyme).
(§2) In the D-Sorbitol Dehydrogenase Coupled Assay, enzymatic determination of D-xylulose was performed at 35°C as previously described (Kersters-Hilderson et al., 1987) in 50mM triethanolamine, pH 7.5, 10mM MgSO₄, and 0.1 M xylose, in the presence of ∼ 2 x 10⁻⁸ M D-sorbitol dehydrogenase (L-iditol : NAD oxidoreductase, EC 1.1.1.14), and 0.15mM NADH, except that the incubation buffer also included 1mM ethylenebis(oxyethylenenitrilo)tetraacetic acid (EGTA). Glucose isomerase final concentration in this assay was about 2.5 x 10⁻³ mg/ml, and precisely determined as described above.
(§3) With glucose as a substrate, GI activity can be assayed by measuring the amount of D-fructose produced during the isomerization reaction using the cysteine-carbazole method which is based on the reaction of ketosugars with carbazole in acids to yield a purple product (Dische and Borenfreund, 1951).

[2] = target: T2, Actinoplanes missouriensis (DSM 43046) D-glucose isomerase EcoAmi(DSM) GI mutant K253Q (Lys-253 to Gln) (Actinoplanes missouriensis, UniProt P12851, K253Q)
T2 construct: made in house; host or cells: E. coli K514
T2 sequence (P12851 whole entry K253Q): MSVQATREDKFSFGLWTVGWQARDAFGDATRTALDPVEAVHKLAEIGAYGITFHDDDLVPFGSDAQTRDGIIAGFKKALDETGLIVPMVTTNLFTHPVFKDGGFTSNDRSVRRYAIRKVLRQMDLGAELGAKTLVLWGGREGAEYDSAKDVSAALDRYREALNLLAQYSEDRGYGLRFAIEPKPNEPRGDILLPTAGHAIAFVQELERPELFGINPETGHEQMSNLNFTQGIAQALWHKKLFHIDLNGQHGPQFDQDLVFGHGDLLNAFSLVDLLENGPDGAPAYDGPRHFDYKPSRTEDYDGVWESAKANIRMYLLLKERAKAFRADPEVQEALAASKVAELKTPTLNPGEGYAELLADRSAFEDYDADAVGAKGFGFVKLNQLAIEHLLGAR
Description: as §1, §2, §3

[3] = target: T3, Actinoplanes missouriensis (DSM 43046) D-glucose isomerase (D-xylose isomerase, EC 5.3.1.5) EcoAmi(DSM) GI, wild type (WT-GI) (Actinoplanes missouriensis, UniProt P12851); assay: Glucose isomerase catalytic parameters (D-sorbitol dehydrogenase coupled assay for D-xylose; cysteine-carbazole method for D-glucose)
T3 construct: made in house; host or cells: E. coli K514
T3 sequence (P12851 whole entry): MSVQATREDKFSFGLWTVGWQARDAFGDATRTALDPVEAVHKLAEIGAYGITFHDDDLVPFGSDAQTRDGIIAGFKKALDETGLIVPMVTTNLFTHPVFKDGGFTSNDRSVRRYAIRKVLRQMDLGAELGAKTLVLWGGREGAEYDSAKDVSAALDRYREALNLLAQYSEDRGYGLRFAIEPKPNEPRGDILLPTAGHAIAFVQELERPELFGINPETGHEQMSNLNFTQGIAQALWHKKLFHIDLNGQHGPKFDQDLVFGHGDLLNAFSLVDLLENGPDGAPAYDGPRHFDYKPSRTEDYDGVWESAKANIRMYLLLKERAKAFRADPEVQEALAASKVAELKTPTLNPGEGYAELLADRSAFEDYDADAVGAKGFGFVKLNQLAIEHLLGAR
Description: as §1, §2, §3

[4] = D-xylose as substrate, coupled assay, 35°C, 50mM triethanolamine pH 7.5, 10mM MgSO4

T1 sequence (P12851 whole entry K253R): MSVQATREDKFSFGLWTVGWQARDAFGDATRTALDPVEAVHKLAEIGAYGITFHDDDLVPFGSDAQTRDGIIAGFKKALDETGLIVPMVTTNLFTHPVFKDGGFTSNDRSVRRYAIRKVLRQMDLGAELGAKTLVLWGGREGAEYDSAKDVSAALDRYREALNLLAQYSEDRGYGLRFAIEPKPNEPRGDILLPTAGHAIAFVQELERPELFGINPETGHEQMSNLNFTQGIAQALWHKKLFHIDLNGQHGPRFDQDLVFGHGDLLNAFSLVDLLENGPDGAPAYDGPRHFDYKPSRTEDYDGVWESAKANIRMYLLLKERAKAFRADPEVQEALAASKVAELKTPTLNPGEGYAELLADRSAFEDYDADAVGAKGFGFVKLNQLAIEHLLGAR

Substance	Vmax (Glucose) ([1]; D-glucose as substrate)	Vmax (Glucose) ([2]; D-glucose as substrate)	Vmax (Glucose) ([3]; D-glucose as substrate)	Km [1, 4] [mM]	Vmax (Xylose) [1, 4]	Km [2, 4] [mM]	Vmax (Xylose) [2, 4]	Km [3, 4] [mM]	Vmax (Xylose) [3, 4]
D-glucose	27.2 units per mg of enzyme	29.0 units per mg of enzyme	30.6 units per mg of enzyme						
D-xylose				5.3	24.6 units per mg of enzyme	4.4	15.1 units per mg of enzyme	4.8	24.2 units per mg of enzyme
